Reference: PMC3446636 (2012)

Molecular target: Cyclin-dependent kinase 2 (CDK2) (Homo sapiens, UniProt P24941)

Nc1ncnc2c1ncn2[C@@H]1O[C@H](COP(=O)(O)OP(=O)(O)OP(=O)(O)O)[C@@H](O)[C@H]1O [ATP]
Km: ~100 µM
